Reference: patent US5792767A, “Bicyclic substituted hexahydrobenz [e] isoindole alpha-1 adrenergic antagonists” (priority 1995, dated 1998)
Structures can show the parent of a compound that is named as a salt.

Molecular target: T1, α-1A adrenoceptor (dog prostate)
T1 construct: from tissue; host or cells: canine prostate strips
Assay: Functional antagonism of phenylephrine-induced contraction of canine prostate strips
Format: cell-based, dog (canine)
Settings: vs phenylephrine-induced contraction, Schild plot; read-out: pA2 Dog Prostate [α-1A] (converted)
From the text: Canine prostate strips were used in vitro as previously described (Hieble, J. P., Boyce, A. J. and Caine, M., Fed. Proc., 45: 2609-2614 (1986)), to determine antagonist potencies against phenylephrine-induced contractions.
Functional assays indicative of pharmacologically defined α-1 adrenoceptors were used to further characterize compounds. Inhibition of phenylephrine (PE)-induced contraction of canine prostate smooth muscle can be correlated with α-1A adrenoceptor activation. […] For each of these models, agonist dose response curves were repeated against increasing concentrations of test agent to derive a Schild plot [log ([…]) against log (molarity of test agent)] to determine the pA2.

T1 sequence (P35348 whole entry): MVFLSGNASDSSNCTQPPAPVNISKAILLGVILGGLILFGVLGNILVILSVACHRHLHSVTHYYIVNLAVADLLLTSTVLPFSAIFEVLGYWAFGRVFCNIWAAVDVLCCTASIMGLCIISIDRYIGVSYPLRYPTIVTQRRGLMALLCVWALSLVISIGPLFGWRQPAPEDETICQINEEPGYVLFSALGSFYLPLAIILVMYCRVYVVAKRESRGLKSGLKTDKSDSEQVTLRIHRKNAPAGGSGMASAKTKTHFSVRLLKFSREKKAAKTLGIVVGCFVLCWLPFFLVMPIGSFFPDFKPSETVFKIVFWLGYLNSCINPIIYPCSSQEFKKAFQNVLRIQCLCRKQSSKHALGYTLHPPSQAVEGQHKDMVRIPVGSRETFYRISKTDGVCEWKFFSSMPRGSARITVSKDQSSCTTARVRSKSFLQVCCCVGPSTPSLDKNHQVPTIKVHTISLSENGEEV

SMILES | Kb [nM]
CCc1c(OC)sc2c(=O)n(CCN3C[C@@H]4CCc5c(OC)cccc5[C@@H]4C3)c(=O)[nH]c12 [Example 63, hydrochloride] | 1.35
COc1cccc2c1CC[C@H]1CN(CCn3c(=O)[nH]c4cnccc4c3=O)C[C@@H]21 (relative stereo) [Example 24, dihydrochloride] | 1.29
COc1cccc2c1CC[C@H]1CN(CCn3c(=O)[nH]c4cccc(Cl)c4c3=O)C[C@@H]21 (relative stereo) [Example 23, hydrochloride] | 4.79
COC(=O)c1cc2c(=O)n(CCN3C[C@@H]4CCc5c(OC)cccc5[C@@H]4C3)c(=O)[nH]c2s1 [Example 59, hydrochloride] | 3.31
COc1cccc2c1CC[C@H]1CN(CCn3c(=O)[nH]c4[nH]ccc4c3=O)C[C@@H]21 (relative stereo) [Example 30] | 1.15
COc1cccc2c1CC[C@H]1CN(CCn3c(=O)[nH]c4ncncc4c3=O)C[C@@H]21 [Example 88, 3-[2-((3aR,9bR)cis-6-Methoxy-2,3,3a,4,5,9b-hexahydro-[1H]-benz[e]isoindol-1-yl)ethyl]-p-rimidino[4,5-d]pyrimidine-2,4(1H,3H)-dione hydrochloride] | 1.86
COc1cc2c(cc1Cl)c(=O)n(CCN1C[C@@H]3CCc4c(OC)cccc4[C@@H]3C1)c(=O)n2C [Example 51, hydrochloride] | 14.1
COc1cccc2c1CC[C@H]1CN(CCn3c(=O)[nH]c4cc(NC(C)=O)ccc4c3=O)C[C@@H]21 [Example 75, 3-[2-((3aR,9bR)cis-6-Methoxy-2,3,3a,4,5,9b-hexahydro-[1H]-benz[e]isoindolyl-1-yl)ethyl]-7-acetamidoquinazoline-2,4(1H,3H)-dione hydrochloride] | 0.661
COc1cccc2c1CC[C@H]1CN(CCn3cnc4c(C)c(C)ccc4c3=O)C[C@@H]21 [Example 57, dihydrochloride] | 7.24
COc1cccc2c1CC[C@H]1CN(CCn3c(=O)[nH]c4c(C)c(OC)sc4c3=O)C[C@@H]21 [Example 64, 3-[2-((3aR,9bR)-cis-6-Methoxy-2,3,3a,4,5,9b-hexahydro-[1H]-benz[e]isoindol-1-yl)ethyl]-6-methoxy-7-methylthieno [3,2-d]primidine-2,4(1H,3H)-dione hydrochloride] | 1.55
COc1cccc2c1CC[C@H]1CN(CCn3c(=O)[nH]c4cccnc4c3=O)C[C@@H]21 (relative stereo) [Example 22, hydrochloride] | 1.51
COc1cccc2c1CC[C@H]1CN(CCn3c(=O)[nH]c4cc(NS(C)(=O)=O)ccc4c3=O)C[C@@H]21 [Example 76, 3-[2-((3aR,9bR)cis-6-Methoxy-2,3,3a,4,5,9b-hexahydro-1WH-benz[e]isoindol-1-yl)lethyl]-7-methanesulfamlquinazoline-2,4(1H,3H)-dione hydrochloride] | 1.86
COc1cccc2c1CC[C@H]1CN(CCn3cnc4c(OC)c(OC)ccc4c3=O)C[C@@H]21 [Example 58, dihydrochloride] | 1.26
COc1cccc2c1CC[C@H]1CN(CCn3c(=O)[nH]c4cc([N+](=O)[O-])ccc4c3=O)C[C@@H]21 [Example 74, hydrochloride] | 1.7
COc1cccc2c1CC[C@H]1CN(CCn3c(=O)[nH]c4c(cnn4C)c3=O)C[C@@H]21 (relative stereo) [Example 28, hydrochloride] | 4.79
COc1cccc2c1CC[C@H]1CN(CCn3c(=O)[nH]c4cc(C(=O)N(C)C)ccc4c3=O)C[C@@H]21 [Example 47, 3-[2-((3aR ,9bR)-cis-6-Methoxy-2,3,3a,4,5,9b-hexahydro-[1H]-benz[e]isoindol-1-yl)ethyl]-7-(N,N'-dimethyl)carbamylguinazoline-2,4(1H,3H)-dione hydrochloride] | 1.62
COc1cccc2c1CC[C@H]1CN(CCn3c(=O)[nH]c4c(-c5ccccc5C)csc4c3=O)C[C@@H]21 [Example 84, hydrochloride] | 8.13
COc1ccc2c(=O)n(CCN3C[C@@H]4CCc5c(OC)cccc5[C@@H]4C3)c(=O)n(C)c2c1 [Example 50, hydrochloride] | 0.631
COc1cccc2c1CC[C@H]1CN(CCn3c(=O)[nH]c4ccc(F)cc4c3=O)C[C@@H]21 (relative stereo) [Example 15, 3-[2-(cis-6-Methoxy-2,3,3a,4,5,9b-hexahydro-[1H]-benz[e]isoindol-1-yl)ethyl]-6-fluoro-quinazoline-2,4(1H,3H)-dione hydrochloride] | 5.37
COc1cccc2c1CC[C@H]1CN(CCn3c(=O)[nH]c4cc(-c5ccccc5)sc4c3=O)C[C@@H]21 (relative stereo) [Example 32, hydrochloride] | 33.9
COc1cccc2c1CC[C@H]1CN(CCn3c(=O)[nH]c4ccc5c(c4c3=O)OCO5)C[C@@H]21 [Example 53, hydrochloride] | 1.95

SMILES | Kb [nM]
COc1cccc2c1CC[C@H]1CN(CCn3c(=O)[nH]c4c(OC)c(OC)c(OC)cc4c3=O)C[C@@H]21 (relative stereo) [Example 18, 3-[2-(cis-6-Methoxy-2,3,3a,4,5,9b-hexahydro-[1H]-benz[e]isoindol-1-yl)ethyl]-6,7,8-trimethoxy-quinazoline-2,4(1H,3H)-dione hydrochloride] | 4.17
O=c1[nH]c2sccc2c(=O)n1CCN1C[C@@H]2CCc3c(O)cccc3[C@@H]2C1 (relative stereo) [Example 35, hydrobromide] | 87.1
COc1cc2[nH]c(=O)n(CCCCN3C[C@@H]4CCc5cccc(OC)c5[C@@H]4C3)c(=O)c2cc1OC [Example 67, hydrochloride] | 4.68
COC(=O)c1ccc2c(=O)n(CCN3C[C@@H]4CCc5c(OC)cccc5[C@@H]4C3)c(=O)[nH]c2c1 [Example 69, hydrochloride] | 0.575
COc1cccc2c1CC[C@H]1CN(CCn3c(=O)[nH]c4sc(-c5ccccc5)cc4c3=O)C[C@@H]21 (relative stereo) [Example 7, 3-[2-(cis-6-Methoxy-2,3,3a,4,5,9b-hexahydro-[1H]-benz[e]isoindol-1-yl)ethyl]-6-phenyl-thieno[2,3-d]pyrimidine-2,4(1H,3H)-dione hydrochloride] | 24
CCOC(=O)c1c[nH]c2[nH]c(=O)n(CCN3C[C@@H]4CCc5c(OC)cccc5[C@@H]4C3)c(=O)c12 [Example 61, hydrochloride] | 2.29
COc1cccc2c1CC[C@H]1CN(CCn3c(=O)[nH]c4cc(F)ccc4c3=O)C[C@@H]21 (relative stereo) [Example 25, 3-[2-(cis-6-Methoxy-2,3,3a,4,5,9b-hexahydro-[1H]-benz[e]isoindol-1-yl)ethyl]-7-fluoro-quinazoline-2,4(1H,3H)-dione hydrochloride] | 0.676
COc1ccc2[nH]c(=O)n(CCN3C[C@@H]4CCc5c(OC)cccc5[C@@H]4C3)c(=O)c2c1 (relative stereo) [Example 17, hydrochloride] | 1.15
COc1cccc2c1CC[C@H]1CN(CCn3c(=O)[nH]c4cc(C(=O)OC(C)C)ccc4c3=O)C[C@@H]21 [Example 73, hydrochloride] | 1.23
COc1cccc2c1CC[C@H]1CN(CCn3c(=O)[nH]c4cc(C(=O)O)ccc4c3=O)C[C@@H]21 [Example 70, hydrochloride] | 1.12
COc1cccc2c1CC[C@H]1CN(CCn3c(=O)[nH]c4sc(C)cc4c3=O)C[C@@H]21 (relative stereo) [Example 29, hydrochloride] | 1.23
COc1cccc2c1CC[C@H]1CN(CCn3c(=O)[nH]c4nccnc4c3=O)C[C@@H]21 [Example 87, 3-[2-((3aR,9bR)cis-6-Methoxy-2,3 3a,4,5,9b-hexahydro-[1H]-benz[e]isoindol-1-yl)ethyl]-2,4pteridinedione hydrochloride] | 1.29
COC(=O)c1ccc2c(=O)n(CCN3C[C@@H]4CCc5c(OC)cccc5[C@@H]4C3)c(=O)[nH]c2c1 (relative stereo) [Example 14, hydrochloride] | 0.977
COc1ccccc1-c1csc2c(=O)n(CCN3C[C@@H]4CCc5c(OC)cccc5[C@@H]4C3)c(=O)[nH]c12 [Example 85, 3-[2-((3aR,9bR)cis-6-Methoxy-2,3,3a,4,5,9b-hexahydro-[1H]-benz[e]isoindol-1-yl)ethyl]-7-(2-methoxyphenyl)thieno[3.2-d]pyrimidine-2,4(1H,3H)-dione hydrochloride] | 2.82
COc1cccc2c1CC[C@H]1CN(CCN3Cc4ccccc4NC3=O)C[C@@H]21 [Example 44, hydrochloride] | 5.37
COc1cccc2c1CC[C@H]1CN(CCn3c(=O)[nH]c4scc(-c5ccccc5)c4c3=O)C[C@@H]21 (relative stereo) [Example 6, hydrochloride] | 47.9
COc1cccc2c1CC[C@H]1CN(CCn3c(=O)[nH]c4c(-c5ccccc5)c(OC)sc4c3=O)C[C@@H]21 [Example 62, hydrochloride] | 2.57
COc1cccc2c1CC[C@H]1CN(CCn3c(=O)[nH]c4c(C(C)C)c(OC)sc4c3=O)C[C@@H]21 [Example 65, -[2-((3aR,9bR)-cis-6-Methoxy-2,3,3a,4,5,9b-hexahydro-[1H]-benz[e]isoindol-1-yl)ethyl]-6-methoxy-7-isopropylthieno [3,2-d]pyrimidine-2,4(1H,3H)-dione hydrochloride] | 2.34
COc1cc2c(=O)n(CCN3C[C@@H]4CCc5c(OC)cccc5[C@@H]4C3)c(=O)[nH]c2cc1Cl [Example 49, hydrochloride] | 12
COc1cccc2c1CC[C@H]1CN(CCn3c(=O)[nH]c4c(C)cc(C)cc4c3=O)C[C@@H]21 (relative stereo) [Example 20, hydrochloride] | 1.48
COc1cccc2c1CC[C@H]1CN(CCn3c(=O)[nH]c4c(C)cccc4c3=O)C[C@@H]21 (relative stereo) [Example 19, hydrochloride] | 5.01
